Assays:
[1] = target: T1, maize (Zea mays) class I EPSPS variant TIPA (T102I, P106A), pMON42481, ZmTIPA SEQ ID NO:39 (Zea mays, UniProt O24566, P106A/T102I); test: EPSPS steady-state kinetics, TIPA variant; format: biochemical
T1 construct: pMON42481
T1 sequence (O24566 1-444 T102I/P106A): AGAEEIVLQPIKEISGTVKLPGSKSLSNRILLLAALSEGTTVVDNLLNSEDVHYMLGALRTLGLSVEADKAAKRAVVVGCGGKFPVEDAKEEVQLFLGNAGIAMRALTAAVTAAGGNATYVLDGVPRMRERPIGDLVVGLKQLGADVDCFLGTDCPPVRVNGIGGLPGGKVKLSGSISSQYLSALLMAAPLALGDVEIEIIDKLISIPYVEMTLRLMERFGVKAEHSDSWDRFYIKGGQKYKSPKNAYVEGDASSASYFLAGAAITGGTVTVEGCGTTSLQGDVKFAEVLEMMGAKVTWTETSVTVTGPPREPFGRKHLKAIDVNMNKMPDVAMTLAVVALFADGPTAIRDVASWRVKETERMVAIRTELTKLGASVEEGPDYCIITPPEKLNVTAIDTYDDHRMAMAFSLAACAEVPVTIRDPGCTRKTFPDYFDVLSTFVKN
Description: The double variants of the present invention were made using pMON58452 (FIG. 5) as the template. This pMON58452 EPSPS gene template contains the maize EPSPS double variant T102I, P106T (TIPT) that was constructed by mutagenesis of pMON70467 with the mutagenesis primers mEmut-9-U and mEmut-10-L. The various mutagenesis primer sequences were designed and then were synthesized by Invitrogen Corp., Custom Primers and used in combination in a PCR to create the variant EPSPS coding sequences. The PCR was set up in a 50 μl reaction in the following manner: dH2O 38 μl; 2 mM dNTP 1 μL; 10× buffer 5 μL; pMON58452 1 μL (10 ng); primer-U 2 μL; primer-L 2 μL; pfu Turbo enzyme 1 μL. PCR was carried out on a MJ Research PTC-200 thermal cycler using the following program: Step 1—94° C. for 30 seconds; Step 2—94° C. for 30 seconds; Step 3—55° C. for 1 minute; Step 4—68° C. for 14 minute; Step 5—go to step 2, 16 times; Step 6—End. At the end of the PCR, 1 μl of the restriction enzyme DpnI was added to each 50 μl of PCR reaction and the mixture was incubated at 37° C. for 1 hour. […]

E. coli EPSPS, native = settings: native enzyme; read-out: apparent Ki for glyphosate; cited from earlier work

Question: For `O=C(O)CNCP(=O)(O)O` [glyphosate, N-phosphonomethylglycine], which Ki [1] is on record?
Answer: Its Ki is 148 ± 18.3 µM.

Question: What about the Ki (E. coli EPSPS, native) of the same compound?
Answer: The Ki was 0.5 µM.
